Measured values published in US8906897B2, “Antimicrobial agents based on hemin derivatives” (Obschestvo S Ogranichennoi Otvetstvennostiyu …, priority 2009, dated 2014).

Columns and labels:
Assay type in all cases: cell-based
[1] = test system: Enterococcus faecium No. 569; experiment: Specific activity against resistant bacterial strains; conditions: Ent. faecium 569; 24 h, 36° C.
Candida albicans No. 927 = experiment: Antifungal activity, culture growth with pH indicator; design: key to Test culture growth at various dilutions of the agent: (−) No growth; the indicator is blue; (±) Weak growth; the indicator is yellow, but the precipitate of grown cells looks as a diffuse spot; (+) Strong growth; the indicator is yellow, and the cell precipitate looks as a compact spot
In short: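 Museum strains grown one day on glucose-peptone-yeast medium at 32° C; compounds two-fold serially diluted (DMSO ≤5% for insoluble ones) in synthetic medium with Bromocresol Blue, ~10^3 CFU/mL. Growth read as blue-to-yellow shift (pH 5.5→4.5) after 1 h at 32° C with stirring, then 27° C: C. neoformans 2 and 5 days, C. albicans 1 and 4 days.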

[2] = test system: Bacillus subtilis BKM B-501; experiment: Antibacterial activity (MIC/MBC), serial dilutions in liquid MH medium; conditions: for MIC: 20 h, MH medium
Experimental: (§1) The antibacterial activity of compounds was determined against Bacillus subtilis BKM B-501, Staphylococcus aureus 209P, Enterococcus faecalis BKM B-871, and Micrococcus luteus BKM Ac-2230 strains (acquired from the All-Russia Collection of Microorganisms at the Institute for Biochemistry and Physiology of Microorganisms, Russian Academy of Sciences). The main parameters characterizing the antibacterial activity are the minimal inhibitory concentration (MIC) and minimal bactericidal concentration (MBC). […] MBC is the least concentration that causes the death of all cells.
(§2) MIC was quantified by inhibiting culture growth in a liquid medium with serial dilutions of compounds using a modified procedure [Amsterdam, D., “Susceptibility Testing of Antimicrobials in Liquid Media,” in Antibiotics in Laboratory Medicine, Ed. by Lorian, V., 4th ed., Baltimore: Williams and Wilkins, 1996, pp. 52-111].
(§3) Bacteria were cultured and tests were carried out on an MH liquid medium (Mueller-Hinton medium: a dry extract of beef broth, 4 g/L; starch, 1.5 g/L; casein hydrolyzate, 17.5 g/L; Sigma-Fluka Catalog No. 70192) at 37° C., 100% humidity, and under stirring. Cultures (4th through 7th receeding post-thawing) in the exponential growth phase were used for tests.
(§4) Therefore, a correction for absorption was applied in estimating the optical density of bacterial suspensions for each compound with account for its concentration in the well.
(§5) The protocol for experimental antibacterial activity determination for tested compounds was as follows. A cryovial with the test strain culture (Bacillus subtilis BKIVI B-501, Staphylococcus aureus 209P, Enterococcus faecalis BKM B-871, or Micrococcus luteus BKIVI Ac-2230) in a medium with 7% DMSO stored in liquid nitrogen, was rapidly defrosted, and 1.5 mL of the fresh MH medium was inoculated with 100 μL of the cell suspension. Cells were grown for one day at 37° C. and stirred on an orbital shaker at 150 rpm. The morphologic features of the strain and the absence of contamination with foreign bacteria were verified by: (a) inoculation on an agarized (15 g/L agar) MH medium and observation of the shape and color of the grown colonies and (b) examination of characteristic morphologic features under a microscope (Mikmed-2, LOMO, Russia) equipped with a 40× objective lens. Further bacteria were cultured in 1 mL of the liquid MH medium at 37° C. under stirring. The cells were reseeded every day. Cell cultures were used in tests starting with 3rd reseeding and ending with 6th one.
(§6) For testing, 5 μL of a bacterial suspension in the stationary growth phase was transferred to 1 mL of a sterile MH medium and incubated until the exponential growth phase was attained (3 to 5 h, 37° C., stirring at 150 rpm). To estimate the microorganisms concentration, the optical density (A) of the resulting bacterial culture was measured at a wavelength of 595 nm. The value of A=0.2 measured from a […] portion of the cell suspension in a 96-well plate, with a correction for the medium absorption applied, was set to correspond to 4×10^8 cells/mL for both strains used. Taking into account the cell concentration measurements, the suspension was diluted with the MH medium to a concentration of from 5×10^4 to 1×10^5 cells/mL and transferred to a sterile 96-well plate in an amount of 100 μL, per well. Then, the cells were added with tested compounds and twofold serial dilutions of these compounds in plate's wells were made.
(§7) The controls used were: 100 μL of an additive-free bacterial culture (four wells); a bacterial culture added with 1% DMSO or water in the same volume as in the wells with the maximal concentration of the tested compounds (four wells); and 100 μL of the sterile MH medium without bacteria and without tested compounds for control of occasional contamination in the plate (four wells).

[3] = test system: Staphylococcus aureus 209P; experiment: as above; conditions: for MIC: 20 h, MH medium
Experimental: as §1, §2, §3, §4, §5, §6, §7

[4] = test system: Enterococcus faecalis BKM B-871; experiment: as above; conditions: for MIC: 20 h, MH medium
Experimental: as §1, §2, §3, §4, §5, §6, §7

[5] = test system: Micrococcus luteus BKM Ac-2230; experiment: as above; conditions: for MIC: 20 h, MH medium
Experimental: as §1, §2, §3, §4, §5, §6, §7

SMILES | MICs for hemin derivatives against Gr+ strains [1] | Test culture growth at various dilutions of the agent (Candida albicans No. 927; dilution 0: 1 × 10^−4 M) | Test culture growth at various dilutions of the agent (Candida albicans No. 927; dilution : 2 of 1 × 10^−4 M) | Test culture growth at various dilutions of the agent (Candida albicans No. 927; dilution : 4 of 1 × 10^−4 M) | Test culture growth at various dilutions of the agent (Candida albicans No. 927; dilution : 8 of 1 × 10^−4 M) | Test culture growth at various dilutions of the agent (Candida albicans No. 927; dilution : 16 of 1 × 10^−4 M) | Test culture growth at various dilutions of the agent (Candida albicans No. 927; dilution : 32 of 1 × 10^−4 M) | Test culture growth at various dilutions of the agent (Candida albicans No. 927; dilution : 64 of 1 × 10^−4 M) | MBC [2] | MIC [2] [µM] | MBC [3] | MIC [3] [µM] | MBC [4] | MIC [4] [µM] | MBC [5] [µM] | MIC [5] [µM] | concentration with practically fungicidal effect (Candida albicans No. 927; control inoculations from wells on day 1 to 4 post-exposure)
C=CC1=C(C)c2cc3[n-]c(cc4nc(cc5[n-]c(cc1n2)c(C)c5CCC(=O)NCCO)C(CCC(=O)NCCO)=C4C)c(C)c3C=C.[Cl-].[Fe+3] [Compound XIV, Protohemin IX 6,7-bis-N-(2-Hydroxyethyl)amide] | >5e-05 M | ± | + | + | + | + | + | + | 6.3 ± 1.6 µM | 1.6 ± 0.4 | 3.2 µM | 1.6 | 100 µM | 25 | 1.6 | 0.8 | 
C=CC1=C(C)c2cc3[n-]c(cc4nc(cc5[n-]c(cc1n2)c(C)c5CCC(=O)N[C@@H](CCC(=O)N[C@@H](CCCNC(=N)N)C(=O)OC)C(=O)N[C@@H](CCCNC(=N)N)C(=O)OC)C(CCC(=O)N[C@@H](CCC(=O)N[C@@H](CCCNC(=N)N)C(=O)OC)C(=O)N[C@@H](CCCNC(=N)N)C(=O)OC)=C4C)c(C)c3C=C.[Cl-].[Fe+3] [Compound XVIII, 6,7-bis[bis(N^α-L-Arginyl Methyl Ester)-L-Glutamyl]-Protohemin IX] | 6.25e-06 M | − | − | − | ± | ± | ± | ± | Not reached |  | >50^2 μM |  | >50^3 μM | 12.5 | 12.5 | 3.1 | about 5×10^−5 M
C=CC1=C(C)c2cc3[n-]c(cc4[n-]c(cc5nc(cc1n2)C(C)=C5C=C)c(C)c4CCC(=O)O)c(CCC(=O)O)c3C.[Cl-].[Fe+3] [Hem, hemin] | >1e-05 M | ± | + | + | + | + | + | + | 50 ± 13 µM | 13 ± 4 | 200 µM | 100 | >1000 µM | 1000 | 25 | 12.5 | 
C=CC1=C(C)c2cc3[n-]c(cc4nc(cc5[n-]c(cc1n2)c(C)c5CCC(=O)N[C@@H](CO)C(=O)OC)C(CCC(=O)N[C@@H](CO)C(=O)OC)=C4C)c(C)c3C=C.[Cl-].[Fe+3] [VIII] | >5.0. ×10^−5 M | ± | ± | ± | + | + | + | + | 9 ± 4 µM | 6.3 ± 1.6 | 200 µM |  | 25 µM | 12.5 | 12.5 |  | 
C=CC1=C(C)c2cc3[n-]c(cc4nc(cc5[n-]c(cc1n2)c(C)c5CCC(=O)N[C@@H](CCCNC(=N)N)C(=O)OC)C(CCC(=O)N[C@@H](CCCNC(=N)N)C(=O)OC)=C4C)c(C)c3C=C.[Cl-].[Fe+3] [VII] | >5e-05 M | ± | + | + | + | + | + | + | 3.1 ± 0.8 µM |  | 200 µM |  | 400 µM | 50 | 6.3 |  | 
